The target in this test is T1, PccGCS (Pectobacterium carotovorum, UniProt C6D9C2, H237A/K238A).
T1 construct: gene PC1_2619; full-length PccGCS H237A/K238A (His-tagged)
T1 sequence (C6D9C2 1-471 H237A/K238A): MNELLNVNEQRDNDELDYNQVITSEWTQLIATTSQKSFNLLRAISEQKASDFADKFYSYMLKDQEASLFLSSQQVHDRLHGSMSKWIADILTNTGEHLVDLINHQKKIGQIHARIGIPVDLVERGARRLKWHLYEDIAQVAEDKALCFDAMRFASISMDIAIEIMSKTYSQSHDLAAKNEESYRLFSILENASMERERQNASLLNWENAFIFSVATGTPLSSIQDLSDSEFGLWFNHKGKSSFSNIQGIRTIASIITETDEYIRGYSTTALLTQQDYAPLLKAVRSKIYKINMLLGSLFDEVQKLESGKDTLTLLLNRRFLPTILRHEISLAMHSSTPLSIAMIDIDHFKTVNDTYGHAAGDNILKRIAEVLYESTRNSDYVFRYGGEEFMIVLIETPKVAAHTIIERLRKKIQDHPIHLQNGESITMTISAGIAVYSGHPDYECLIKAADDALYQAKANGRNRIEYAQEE
Nature of the test: isothermal titration calorimetry, […]°C. Format: binding. Background: Isothermal titration calorimetry measures the heat released or taken up as one component is titrated into another.

Molecules are shown by their SMILES.

One may read the Kd as the constant that tells how readily two partners part at equilibrium.

Consider `Nc1nc2c(ncn2[C@@H]2O[C@H](COP(=O)(O)CP(=O)(O)OP(=O)(O)O)[C@@H](O)[C@H]2O)c(=O)[nH]1` [GpCpp, guanosine-5′-[(α,β)-methyleno]triphosphate], for which the Kd is 9.7 ± 3.9 µM.
